# According to patent US9617311B2, “Use of PEDF-derived polypeptides for promoting stem cells proliferation and wound healing” (Mackay Memorial Hospital, priority 2011, dated 2017):
# Tested on: Lgr6-positive HFSCs
# Assay: Distribution of Lgr6-positive HFSCs at HE tissue at day 4 post skin wounding, immunohistochemistry
# Format: in vivo, C57L/B6 mice
# Conditions: wounds treated for 4 days
# Source text: FIGS. 10A and 10B illustrate histological analysis of the distribution of HFSCs at day 4 post-skin wounding. FIG. 10A provides photographs in which specimens were immunehistologically stained with Lgr6 to observe HFSC-derived cells at HE tissue and counterstained with hematoxylin to observe nuclei. Original magnification, ×400. FIG. 10B presents photographs in which sections of 20-mer ointment-treated wound were stained with BrdU- and Lgr6-specific antibodies. Lgr6 is expressed in the cell nucleus as confirmed by Hoechst 33258 counterstaining.
# To perform full-thickness skin excision, 8- to 10-week-old C57L/B6 mice were respectively anesthetized by an intraperitoneal injection of a mixture of zoletil (6 mg/kg) and xylazine (3 mg/kg). Two full-thickness skin excisional wounds, 4 mm in diameter were made on either side of the dorsal midline using Sklar Tru-Punch disposable biopsy punch (Sklar, West Chester, Pa., USA). In each treatment group (n=6), the skin wound was treated with 25 μl skin ointment (containing 50 μM synthetic peptide and 0.006 μl DMSO vehicle) once daily after the skin scraping. In the control group (n=6), skin wound was treated with 25 μl of skin ointment with equal concentration of DMSO. Each gram of the above skin ointment contains 5 mg neomycin sulfate and 12.5 mg Bacitracin Zinc. Wounds were left uncovered and harvested 4 and 7 days after injury. […]
sequence,measurement,value
"SLGAEQRTESIIHRALYYDL [20-mer, synthetic peptide identical to residues 11-30 of the 39-mer]",Lgr6-positive cells at HE tissue versus control wound,markedly increased
